Laboratory results taken from patent publication US5245034A, “Compound having vessel smooth muscle relaxation activity” (Hidaka; Kiroyoshi, priority 1988, dated 1993).

Experiments:
[1] = system: superior mesenteric artery (contracted by potassium chloride); test: Vessel Smooth Muscle Relaxation Action (V.R.); format: cell-based, rabbit; conditions: Oryctolagus cuniculus; concentration relaxing KCl-contracted strain to 50%; cumulative administration; read-out: V.R. (ED50)
Description: The specimen was suspended by loading a strain in Krebs-Henseleit solution through which an oxygen gas containing 5% carbon dioxide was bubbled. The specimen was contracted by adding potassium chloride to maintain a predetermined strain. Thereafter, a test compound was cumulatively administrated.

[2] = molecular target: Calmodulin-Dependent Phosphodiesterase (Ca^2+ PDE); test: Calmodulin-Dependent Phosphodiesterase Inhibition (Ca^2+ PDE); format: biochemical, rat; conditions: [^3 H]-cGMP, 30° C.
Experimental: Phosphodiesterase (Ca^2+ PDE)Ca^2+ PDE was partially purified from the brain of rat by DEAE-Sepharose column chromatography.
Calmodulin was purified from the calf brain using a calmodulin inhibitor W-7 affinity column.
A reaction mixture contained 20 μl of 500 mM Tris-HCl (pH 8.0), 20 μl of 50 mM MgCl2, 20 μl of 2 mM CaCl2 (or 10 mM EGTA), 20 μl of 1 mg/ml bovine serum albumin, PDE, […] of calmodulin, test sample and distilled water to make total volume 200 μl. To the mixture was added 20 μl of 4 μM [^3 H]-cGMP (2.5 μCi/ml), the mixture was incubated at 30° C. for 15 minutes, and then heated in boiling water for 3 to 5 minutes to terminate the reaction, and cooled in ice-water bath. 20 μg of 5'-nucleotidase (Snake venum) was added to the mixture, and the mixture was again incubated at 30° C. for 10 minutes. After addition of about 2 ml of water, the sample was applied to a cation exchange resin column (Biorad AG.AG50W-X4 to adsorbe the [^3 H]-guanosine and additionally about 2 ml of washing water for the sample was added to the column. The column was washed with about 20 ml of water, and the adsorbed [^3 H]-guanosine was eluted with 3 ml of 3N NH4 OH, and the elute was directly received by a vial. After an addition of 10 ml of an emulsified scintillation solution (ACS-II, AMERSHAM) the radio activity was measured by a scintillation counter LS7500 (Beckmann). The enzyme activity in the presence of calmodulin was taken as […], and a concentration of a test compound in μM which provides a 50% inhibition was expressed as IC50.

Compound | EC50 [1] [µM] | IC50 [2] [µM]
O=S(=O)(NC(Cc1ccc(O)cc1)CN1CCC(OCc2ccc(Cl)c(Cl)c2)CC1)c1cccc2cnccc12 (stereo not drawn) [Example 87, N-{1-(p-hydroxybenzyl)-2-[4-(3,4-dichlorobenzyloxy)piperidino]ethyl}-5-isoquinolinesulfonamide] | 1.7 | 1.9
O=S(=O)(NC(Cc1ccc(OCc2ccccc2)cc1)CN1CCN(c2ccccc2)CC1)c1cccc2cnccc12 (stereo not drawn) [Example 88, N-{1-[(4-benzyloxy)benzyl]-2-(4-phenylpiperazinyl)ethyl}-5-isoquinolinesulfonamide] | 4.3 | 14
CN(C(Cc1ccc(O)cc1)CN1CCC(OCc2ccc(Cl)c(Cl)c2)CC1)S(=O)(=O)c1cccc2cnccc12 (stereo not drawn) [Example 90, N-{2-[4-(3,4-Dichlorobenzyloxy)Piperidino]-1-(P-Hydroxybenzyl)Ethyl}-N-Methyl-5-Isoquinolinesulfonamide] | 0.33 | 3.4
COc1ccc(CC(CN2CCC(OCc3ccc(Cl)c(Cl)c3)CC2)N(C)S(=O)(=O)c2cccc3cnccc23)cc1 (stereo not drawn) [Example 91, N-{2-[4-(3,4-Dichlorobenzyloxy)Piperidine]-1-(P-Methoxybenzyl)Ethyl}-N-Methyl-5-Isoquinolinesulfonamide] | 1.1 | 10
CN(C(Cc1ccc(O)cc1)CN1CCC(c2ccccc2)CC1)S(=O)(=O)c1cccc2cnccc12 (stereo not drawn) [Example 93, N-[1-(p-hydroxybenzyl)-2-(4-phenylpiperidino)ethyl]-N-methyl-5-isoquinolinesulfonamide] | 0.31 | 3.4
CN(C(Cc1ccc(OS(=O)(=O)c2cccc3cnccc23)cc1)CN1CCC(O)CC1)S(=O)(=O)c1cccc2cnccc12 (stereo not drawn) [Example 99, N-{2-(4-Hydroxypiperidino)-1-[P-(5-Isoquinolinesulfonyloxy)Benzyl]Ethyl}-N-Methyl-5-Isoquinolinesulfonamide] | 2.8 | 61
O=S(=O)(c1cccc2cnccc12)N(Cc1ccc(Cl)c(Cl)c1)C(Cc1ccc(O)cc1)CN1CCC(O)CC1 (stereo not drawn) [Example 105, N-3,4-Dichlorobenzyl-N-[1-(P-Hydroxybenzyl)-2-(4-Hydroxypiperidino)Ethyl]-5-Isoquinolinesulfonamide] | 5.4 | 12
Cc1ccc(CN(C(Cc2ccc(O)cc2)CN2CCC(O)CC2)S(=O)(=O)c2cccc3cnccc23)cc1 (stereo not drawn) [Example 106, N-[1-(P-Hydroxybenzyl)-2-(4-Hydroxypiperidino)Ethyl]-N-P-Methylbenzyl-5-Isoquinolinesufonamide] | 8.9 | 28
O=C([C@H](Cc1ccc(OS(=O)(=O)c2cccc3cnccc23)cc1)NS(=O)(=O)c1cccc2cnccc12)N1CCN(c2ccccc2)CC1 [Example 108, 1-[N,O-Bis(5-Isoquinolinesulfonyl)Tyrosyl]-4-Phenylpiperazine] | 1.2 | 10
CN([C@@H](Cc1ccc(OS(=O)(=O)c2cccc3cnccc23)cc1)C(=O)N1CCN(c2ccccc2)CC1)S(=O)(=O)c1cccc2cnccc12 [Example 109, 1-[N,O-Bis(5-Isoquinolinesulfonyl)-N-Methyltyrosyl]-4-Phenylpiperazine] | 0.59 | 1.3
CN([C@@H](Cc1ccc(O)cc1)C(=O)N1CCN(c2ccccc2)CC1)S(=O)(=O)c1cccc2cnccc12 [Example 110, 1-[N-(5-Isoquinolinesulfonyl)-N-Methyltyrosyl]-4-Phenylpiperazine] | 3.8 | 9.3
O=C([C@H](Cc1ccc(O)cc1)NS(=O)(=O)c1cccc2cnccc12)N1CCN(c2ccccc2)CC1 [Example 111, 1-[N-(5-isoquinolinesulfonyl)tyrosyl]-4-phenylpiperazine] | 7 | 77
O=C(CCc1ccccc1)N1CCCN(CC(Cc2ccc(O)cc2)NS(=O)(=O)c2cccc3cnccc23)CC1 (stereo not drawn) [Example 119, N-{1-(P-Hydroxybenzyl)-2-[4-(3-Phenylpropionyl)Homopiperazinyl]Ethyl}-5-Isoquinolinesulfonylamide] | 11 | 51
O=S(=O)(Nc1ccccc1NCC=Cc1ccc(Cl)cc1)c1cccc2cnccc12 [Example 142, N-[2-(4-Chlorocinnamylamino)Phenyl]-5-Isoquinolinesulfonamide] | 6.8 | 1.1
CN(c1ccccc1NCC=Cc1ccc(Cl)cc1)S(=O)(=O)c1cccc2cnccc12 [Example 143, N-[2-(4-Chlorocinnamylamino)Phenyl]-N-Methyl-5 -Isoquinolinesulfonamide] | 0.82 | 15
O=S(=O)(c1cccc2cnccc12)N1CCN(CC=Cc2ccc(Cl)cc2)c2ccccc21 [Example 144, 1-(4-Chlorocinnamyl)-4-(5-Isoquinolinesulfonyl)-1,2,3,4-Tetrahydroquinoxaline] | 1.8 | 1
O=S(=O)(Nc1ncccc1NCC=Cc1ccc(Cl)cc1)c1cccc2cnccc12 [Example 147, 3-(4-Chlorocinnamylamino)-2-(5-Isoquinolinesulfonylamino)Pyridine] | 1.2 | 42
CC(C=Cc1ccccc1[N+](=O)[O-])NCCNS(=O)(=O)c1cccc2cnccc12 (stereo not drawn) [Example 158] | 17 | 21
O=S(=O)(NCCNCC=Cc1ccc(F)cc1)c1cccc2cnccc12 [Example 175, N-[2-(4-Fluorocinnamylamino)ethyl]-5-Isoquinolinesulfonamide] | 2 | 13
COc1ccc(C=CCNCCNS(=O)(=O)c2cccc3cnccc23)cc1 [Example 178, N-[2-(4-Methoxycinnamylamino)ethyl]-5-Isoquinolinesulfonamide] | 2.4 | 50
O=S(=O)(NCCNCC=CC=Cc1ccc(C(F)(F)F)cc1)c1cccc2cnccc12 [Example 180, N-{2-[5-(4-Trifluoromethylphenyl)-2,4-Pentadienylamino]Ethyl}-5-Isoquinolinesulfonamide] | 1.8 | 4.8
O=S(=O)(NCCNCC=Cc1cccc2ccccc12)c1cccc2cnccc12 [Example 184, N-{2-[3-(1-Naphthyl)-2-Propenylamino]ethyl}-5-Isoquinolinesulfonamide] | 2.8 | 12
O=S(=O)(NCCNCC#Cc1ccc(Cl)cc1)c1cccc2cnccc12 [Example 189-I, N-{2-[3-(4-Chlorophenyl)-2-Propynylamino]Ethyl}-5-Isoquinolinesulfonamide] | 0.22 | 2.7
O=S(=O)(c1cccc2cnccc12)N(CC#Cc1ccc(Cl)cc1)CCNCC#Cc1ccc(Cl)cc1 [Example 189-III] | 0.29 | 1
O=S(=O)(c1cccc2cnccc12)N1CCN(CC=Cc2ccc(Cl)cc2)CC1 [Example 191, 1-(4-Chlorocinnamyl)-4-(5-Isoquinolinesulfonyl)Piperazine] | 1.9 | 26
CCN(CC=Cc1ccc(Cl)cc1)CCN(CC)S(=O)(=O)c1cccc2cnccc12 [Example 192, N-Ethyl-N-[2-(4-Chloro-N-Ethylcinnamylamino)Ethyl]-5-Isoquinolinesulfonamide] | 0.12 | 84
O=CN(CC=Cc1ccc(Cl)cc1)CCNS(=O)(=O)c1cccc2cnccc12 [Example 193, N-[2-(4-Chloro-N-Formylcinnamylamino)ethyl]-5-Isoquinolinesulfonamide] | 3.2 | 12
